Results taken from ChEMBL document CHEMBL1201862, “PubChem BioAssay data set” (2004).
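Tested at 5 concentrations; 48 h exposure; 96-well plates; endpoints linearly interpolated, else capped at highest concentration. GI50: concentration for 50% inhibition of growth.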 Activity calls are given as the source filed them. Cut-off read from the data, not from the text of the source: active = GI50 up to about 1.1 µM and inactive = higher.

Key:
Experiment in all cases: NCI-60 cell line screen, 48 h
786-0 = test system: 786-0
A498 = test system: A498
A549 = test system: A549
ACHN = test system: ACHN
CAKI-1 = test system: CAKI-1
CCRF-CEM = test system: CCRF-CEM
COLO 205 = test system: COLO 205
DLD-1 = test system: DLD-1
DMS-114 = test system: DMS-114
DMS-273 = test system: DMS-273
EKVX = test system: EKVX
HCC 2998 = test system: HCC 2998
HCT-116 = test system: HCT-116
HCT-15 = test system: HCT-15
HL-60 = test system: HL-60
HOP-62 = test system: HOP-62
HOP-92 = test system: HOP-92
HT-29 = test system: HT-29
IGROV-1 = test system: IGROV-1
K562 = test system: K562
KM-20L2 = test system: KM-20L2
KM12 = test system: KM12
LOX IMVI = test system: LOX IMVI
LXFL 529 = test system: LXFL 529
M14 = test system: M14
M19-MEL = test system: M19-MEL
MOLT-4 = test system: MOLT-4
Malme-3M = test system: Malme-3M
NCI-H226 = test system: NCI-H226
NCI-H23 = test system: NCI-H23
NCI-H460 = test system: NCI-H460
NCI-H522 = test system: NCI-H522
OVCAR-3 = test system: OVCAR-3
OVCAR-4 = test system: OVCAR-4
OVCAR-5 = test system: OVCAR-5
OVCAR-8 = test system: OVCAR-8
RPMI-8226 = test system: RPMI-8226
RXF 393 = test system: RXF 393
RXF 631 = test system: RXF 631
SF-268 = test system: SF-268
SF-295 = test system: SF-295
SF-539 = test system: SF-539
SK-MEL-28 = test system: SK-MEL-28
SK-MEL-2 = test system: SK-MEL-2
SK-MEL-5 = test system: SK-MEL-5
SK-OV-3 = test system: SK-OV-3
SN12C = test system: SN12C
SNB-19 = test system: SNB-19
SNB-75 = test system: SNB-75
SNB-78 = test system: SNB-78
SR = test system: SR
SW-620 = test system: SW-620
TK-10 = test system: TK-10
U-251 = test system: U-251
UACC-257 = test system: UACC-257
UACC-62 = test system: UACC-62
UO-31 = test system: UO-31
XF498 = test system: XF498
HOP-18 = test system: HOP-18

Measured: GI50

Clc1cc2ns[s+]c2cc1Cl
inactive: 786-0 > 75.9 µM | A498 > 100 µM | A549 56.9 µM | ACHN 12.4 µM | CAKI-1 18.9 µM | CCRF-CEM 33.4 µM | COLO 205 > 88.3 µM | DLD-1 13.1 µM | DMS-114 29.1 µM | DMS-273 32.3 µM | EKVX 81.8 µM | HCC 2998 59.7 µM | HCT-116 41 µM | HL-60 19.3 µM | HOP-62 31.8 µM | HOP-92 36.1 µM | HT-29 29.3 µM | IGROV-1 98.6 µM | K562 4.55 µM | KM-20L2 14.3 µM | KM12 41 µM | LOX IMVI 9.48 µM | LXFL 529 4.72 µM | M14 9.73 µM | M19-MEL 61.4 µM | MOLT-4 29.9 µM | Malme-3M > 100 µM | NCI-H226 > 100 µM | NCI-H23 73.8 µM | NCI-H460 47.8 µM | NCI-H522 27.6 µM | OVCAR-3 65 µM | OVCAR-4 > 100 µM | OVCAR-5 > 62.7 µM | OVCAR-8 > 56.5 µM | RPMI-8226 31 µM | RXF 393 > 100 µM | RXF 631 60.3 µM | SF-268 21.1 µM | SF-295 47.1 µM | SF-539 36.6 µM | SK-MEL-28 > 81.8 µM | SK-MEL-2 > 45.1 µM | SK-MEL-5 > 37 µM | SK-OV-3 > 100 µM | SN12C 58.9 µM | SNB-19 > 74.8 µM | SNB-75 21 µM | SNB-78 > 100 µM | SR 23.2 µM | SW-620 32.8 µM | TK-10 > 44.9 µM | U-251 > 100 µM | UACC-257 > 86.3 µM | UACC-62 5.33 µM | UO-31 28.6 µM | XF498 > 83.6 µM
4.34 µM: HCT-15

COC(=O)N/N=C/C(=C/Nc1ccccc1)[N+](=O)[O-]
inactive: 786-0 > 100 µM | A549 > 100 µM | ACHN > 100 µM | CCRF-CEM > 100 µM | COLO 205 > 100 µM | DLD-1 > 100 µM | DMS-114 > 100 µM | DMS-273 > 100 µM | EKVX > 100 µM | HCC 2998 > 100 µM | HCT-116 > 100 µM | HL-60 > 100 µM | HOP-18 > 100 µM | HOP-62 > 100 µM | HOP-92 21 µM | HT-29 > 100 µM | IGROV-1 > 100 µM | K562 > 100 µM | KM-20L2 > 100 µM | LOX IMVI > 100 µM | LXFL 529 > 100 µM | M14 > 100 µM | M19-MEL > 100 µM | MOLT-4 > 100 µM | NCI-H23 > 100 µM | NCI-H460 > 100 µM | NCI-H522 86.7 µM | OVCAR-3 > 100 µM | OVCAR-4 > 100 µM | OVCAR-8 > 100 µM | RPMI-8226 > 100 µM | RXF 393 > 100 µM | RXF 631 > 100 µM | SF-268 > 100 µM | SK-MEL-28 > 100 µM | SK-MEL-5 > 100 µM | SK-OV-3 > 100 µM | SN12C > 100 µM | SNB-19 > 100 µM | SR > 100 µM | SW-620 > 100 µM | TK-10 > 100 µM | U-251 > 100 µM | UACC-257 > 100 µM | UACC-62 46.2 µM | UO-31 > 100 µM | XF498 > 100 µM
59 µM: HCT-15
